Drawing on patent US10273222B2 (CELGENE QUANTICEL RESEARCH, INC., priority 2013, dated 2019), this text covers IC50 for 24 molecules.

Common to all, as to assay type: biochemical
The target in one assay is Jarid1A (Homo sapiens (Human), UniProt P29375). In words: Jarid1A in vitro enzyme inhibition assay (TR-FRET). An excerpt:
The enzymatic assay of Jarid1A activity is based upon Time Resolved-Fluorescence Resonance Energy Transfer (TR-FRET) detection.
Background: TR-FRET usually uses a lanthanide donor and a delayed reading to cut background.

The target in another assay is Jarid1B (Homo sapiens (Human), UniProt Q9UGL1). The assay is described as follows: Jarid1B in vitro enzyme inhibition assay (TR-FRET).
Sequence of Jarid1B (Q9UGL1 2-751): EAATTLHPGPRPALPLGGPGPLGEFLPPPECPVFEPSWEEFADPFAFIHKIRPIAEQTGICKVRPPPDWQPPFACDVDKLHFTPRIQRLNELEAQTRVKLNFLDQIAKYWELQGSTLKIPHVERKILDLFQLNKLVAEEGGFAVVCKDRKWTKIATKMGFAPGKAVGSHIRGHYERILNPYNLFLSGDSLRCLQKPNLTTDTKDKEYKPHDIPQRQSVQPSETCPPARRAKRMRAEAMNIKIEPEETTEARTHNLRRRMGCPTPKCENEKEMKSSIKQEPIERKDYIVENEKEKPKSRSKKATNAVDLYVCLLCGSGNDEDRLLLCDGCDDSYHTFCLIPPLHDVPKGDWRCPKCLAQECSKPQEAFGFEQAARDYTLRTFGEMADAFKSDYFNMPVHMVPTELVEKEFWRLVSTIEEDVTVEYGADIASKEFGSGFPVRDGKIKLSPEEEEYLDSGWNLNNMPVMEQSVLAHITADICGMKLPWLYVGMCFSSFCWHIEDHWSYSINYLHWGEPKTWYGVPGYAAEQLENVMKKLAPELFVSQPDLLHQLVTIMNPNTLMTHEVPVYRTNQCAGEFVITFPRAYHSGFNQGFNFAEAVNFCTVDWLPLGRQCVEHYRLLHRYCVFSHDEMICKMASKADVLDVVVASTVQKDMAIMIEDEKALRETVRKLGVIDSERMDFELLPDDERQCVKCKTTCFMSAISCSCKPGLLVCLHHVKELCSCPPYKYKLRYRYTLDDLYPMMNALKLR
For the next assay, the target named is JMJD2A (Homo sapiens (Human), UniProt O75164). The assay is described as follows: JMJD2A in vitro enzyme inhibition assay (TR-FRET).
Sequence of JMJD2A (O75164 1-350): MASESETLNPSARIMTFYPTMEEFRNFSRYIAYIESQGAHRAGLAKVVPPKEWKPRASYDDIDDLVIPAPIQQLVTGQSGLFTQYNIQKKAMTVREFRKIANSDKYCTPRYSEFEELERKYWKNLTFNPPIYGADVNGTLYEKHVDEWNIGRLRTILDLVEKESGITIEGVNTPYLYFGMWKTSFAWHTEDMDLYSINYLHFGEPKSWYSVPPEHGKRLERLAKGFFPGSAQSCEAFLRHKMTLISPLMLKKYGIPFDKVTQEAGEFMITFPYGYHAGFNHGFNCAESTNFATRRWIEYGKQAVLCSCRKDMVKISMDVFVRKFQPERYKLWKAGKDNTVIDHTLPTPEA
The next assay has as its target FBXL10 (Homo sapiens (Human), UniProt Q8NHM5). The assay is described as follows: FBXL10 in vitro enzyme inhibition assay (AlphaScreen). In a few lines:
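AlphaScreen read-out of H3K36me1 product, detected with anti-H3K36me1 antibody plus streptavidin donor and Protein A acceptor beads (final 10 μg/ml) in 50 mM HEPES pH 7.3, 10 mM NaCl, 0.005% Brij35, 5 mM EDTA, 2 mg/ml BSA. Beads incubated 2 h to overnight at room temperature; IC50 derived from AlphaScreen signal.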

In another assay the target is JMJD2C (Homo sapiens (Human), UniProt Q9H3R0). The assay is described as follows: JMJD2C in vitro enzyme inhibition assay (TR-FRET).
Sequence of JMJD2C (Q9H3R0 2-372): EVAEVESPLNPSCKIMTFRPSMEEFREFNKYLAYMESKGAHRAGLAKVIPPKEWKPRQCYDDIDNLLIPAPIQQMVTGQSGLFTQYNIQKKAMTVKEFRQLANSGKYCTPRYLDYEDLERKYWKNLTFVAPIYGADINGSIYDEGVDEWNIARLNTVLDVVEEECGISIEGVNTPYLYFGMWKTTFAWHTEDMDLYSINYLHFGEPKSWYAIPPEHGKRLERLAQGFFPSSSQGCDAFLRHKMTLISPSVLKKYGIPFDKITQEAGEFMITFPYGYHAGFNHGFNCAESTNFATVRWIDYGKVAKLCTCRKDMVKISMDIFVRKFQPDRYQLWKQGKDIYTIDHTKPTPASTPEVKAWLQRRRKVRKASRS

Molecules are shown by their SMILES. pIC50: −log10 of the molar value.

Sequence of FBXL10 (Q8NHM5 1-650): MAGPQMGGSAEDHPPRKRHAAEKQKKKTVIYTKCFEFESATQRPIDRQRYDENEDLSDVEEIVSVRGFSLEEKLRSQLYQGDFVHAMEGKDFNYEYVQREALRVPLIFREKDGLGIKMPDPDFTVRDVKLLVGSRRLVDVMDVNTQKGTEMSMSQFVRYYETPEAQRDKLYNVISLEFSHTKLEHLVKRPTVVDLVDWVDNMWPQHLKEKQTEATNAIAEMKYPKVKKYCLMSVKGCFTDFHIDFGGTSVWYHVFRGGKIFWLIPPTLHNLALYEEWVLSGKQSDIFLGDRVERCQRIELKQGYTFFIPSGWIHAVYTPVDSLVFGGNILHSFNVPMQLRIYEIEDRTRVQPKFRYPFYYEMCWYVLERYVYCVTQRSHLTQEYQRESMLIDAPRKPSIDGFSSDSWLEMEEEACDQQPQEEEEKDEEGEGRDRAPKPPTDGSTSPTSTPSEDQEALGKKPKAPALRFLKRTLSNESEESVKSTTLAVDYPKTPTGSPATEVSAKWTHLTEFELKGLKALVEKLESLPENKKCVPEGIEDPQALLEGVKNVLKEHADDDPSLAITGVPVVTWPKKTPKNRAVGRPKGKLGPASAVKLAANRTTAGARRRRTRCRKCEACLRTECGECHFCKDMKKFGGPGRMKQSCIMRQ
Sequence of Jarid1A (P29375 1-1090): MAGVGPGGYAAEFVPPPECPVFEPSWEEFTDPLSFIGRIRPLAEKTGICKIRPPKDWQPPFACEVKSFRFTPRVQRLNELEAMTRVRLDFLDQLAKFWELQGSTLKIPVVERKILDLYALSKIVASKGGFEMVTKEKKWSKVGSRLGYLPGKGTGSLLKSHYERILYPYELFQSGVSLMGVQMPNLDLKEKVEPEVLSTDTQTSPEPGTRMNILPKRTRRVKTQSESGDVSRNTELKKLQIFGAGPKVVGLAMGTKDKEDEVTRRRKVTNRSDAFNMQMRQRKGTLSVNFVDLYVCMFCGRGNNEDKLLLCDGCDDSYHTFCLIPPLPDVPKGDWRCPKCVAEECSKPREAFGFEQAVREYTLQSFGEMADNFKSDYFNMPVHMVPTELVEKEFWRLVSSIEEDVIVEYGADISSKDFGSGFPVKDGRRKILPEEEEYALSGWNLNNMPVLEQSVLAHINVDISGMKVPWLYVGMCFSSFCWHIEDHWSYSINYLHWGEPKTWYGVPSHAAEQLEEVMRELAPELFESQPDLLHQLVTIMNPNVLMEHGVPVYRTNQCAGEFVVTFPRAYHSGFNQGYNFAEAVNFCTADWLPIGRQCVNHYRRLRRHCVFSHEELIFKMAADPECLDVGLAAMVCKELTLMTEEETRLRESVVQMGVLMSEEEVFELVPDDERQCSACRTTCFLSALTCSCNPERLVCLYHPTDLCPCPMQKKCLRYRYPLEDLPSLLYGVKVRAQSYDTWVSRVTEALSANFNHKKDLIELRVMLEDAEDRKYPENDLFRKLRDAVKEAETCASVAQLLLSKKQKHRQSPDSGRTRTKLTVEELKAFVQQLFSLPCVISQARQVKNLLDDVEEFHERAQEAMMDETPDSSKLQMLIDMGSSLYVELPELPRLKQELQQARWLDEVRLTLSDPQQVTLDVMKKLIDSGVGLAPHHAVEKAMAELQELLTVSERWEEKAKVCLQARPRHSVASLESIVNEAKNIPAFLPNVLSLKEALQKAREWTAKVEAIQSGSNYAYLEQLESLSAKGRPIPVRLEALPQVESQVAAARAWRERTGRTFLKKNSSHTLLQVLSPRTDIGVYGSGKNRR
Procedure for JMJD2A: This assay determines the ability of a test compound to inhibit Jarid1A, Jarid1B, JMJD2C, and JMJD2A demethylase activity. […] Baculovirus expressed JMJD2A (GenBank Accession #NM_014663, AA 1-350) was purchased from BPS Bioscience (Cat#50123).
The ability of test compounds to inhibit the activity of JMJD2A was determined in 384-well plate format under the following reaction conditions: 2 nM JMJD2A, 300 nM H3K9me3-biotin labeled peptide (Anaspec cat #64360), 2 μM alpha-ketoglutaric acid in assay buffer of 50 mM HEPES, pH7.3, 0.005% Brij35, 0.5 mM TCEP, 0.2 mg/ml BSA, 50 μM sodium L-ascorbate, and 2 μM ammonium iron(II) sulfate. Reaction product was determined quantitatively by TR-FRET after the addition of detection reagent Phycolink Streptavidin-allophycocyanin (Prozyme) and Europium-anti-di-methylated histone H3 lysine 9 (H3K9me2) antibody (PerkinElmer) in the presence of 5 mM EDTA in LANCE detection buffer (PerkinElmer) at a final concentration of 50 nM and 1 nM, respectively.
The assay reaction was initiated by the following: 2 μl of the mixture of 900 nM H3K9me3-biotin labeled peptide and 6 μM alpha-ketoglutaric acid with 2 μl of 11-point serial diluted inhibitor in 3% DMSO were added to each well of plate, followed by the addition of 2 μl of 6 nM JMJD2A to initiate the reaction. The reaction mixture was incubated at room temperature for 30 minutes, and terminated by the addition of 6 μl of 5 mM EDTA in LANCE detection buffer containing 100 nM Phycolink Streptavidin-allophycocyanin and 2 nM Europium-anti-H3K9me2 antibody. Plates were read by EnVisionMultilabel Reader in TR-FRET mode (excitation at 320 nm, emission at 615 nm and 665 nm) after 1 hour incubation at room temperature. A ratio was calculated (665/615) for each well and fitted to determine inhibition constant (IC50).
Procedure for Jarid1B: This assay determines the ability of a test compound to inhibit Jarid1A, Jarid1B, JMJD2C, and JMJD2A demethylase activity.
The ability of test compounds to inhibit the activity of Jarid1B was determined in 384-well plate format under the following reaction conditions: 0.8 nM Jarid1B, 300 nM H3K4me3-biotin labeled peptide (Anaspec cat #64357), 2 μM alpha-ketoglutaric acid in assay buffer of 50 mM HEPES, pH7.3, 0.005% Brij35, 0.5 mM TCEP, 0.2 mg/ml BSA, 50 μM sodium L-ascorbate, and 2 μM ammonium iron(II) sulfate. Reaction product was determined quantitatively by TR-FRET after the addition of detection reagent Phycolink Streptavidin-allophycocyanin (Prozyme) and Europium-anti-mono- or di-methylated histone H3 lysine 4 (H3K4me1-2) antibody (PerkinElmer) in the presence of 5 mM EDTA in LANCE detection buffer (PerkinElmer) at a final concentration of 25 nM and 1 nM, respectively.
The assay reaction was initiated by the following: 2 μl of the mixture of 900 nM H3K4me3-biotin labeled peptide and 6 μM alpha-ketoglutaric acid with 2 μl of 11-point serial diluted inhibitor in 3% DMSO was added to each well of the plate, followed by the addition of 2 μl of 2.4 nM Jarid1B to initiate the reaction. The reaction mixture was incubated at room temperature for 30 minutes, and terminated by the addition of 6 μl of 5 mM EDTA in LANCE detection buffer containing 50 nM Phycolink Streptavidin-allophycocyanin and 2 nM Europium-anti-H3K4me1-2 antibody. Plates were read by EnVisionMultilabel Reader in TR-FRET mode (excitation at 320 nm, emission at 615 nm and 665 nm) after 1 hour incubation at room temperature. A ratio was calculated (665/615) for each well and fitted to determine inhibition constant (IC50).

With `CN(CCn1cnc(-c2cc(C(=O)O)ccn2)c1)Cc1ccc(F)cc1` [Example 38, 2-[1-[2-[(4-fluorophenyl)methyl-methylamino]ethyl]imidazol-4-yl]pyridine-4-carboxylic acid], the pIC50 on Jarid1A, against Jarid1B, on JMJD2A, against FBXL10 and at JMJD2C was not below 7.00 in each case.

With `CN(C)CCOCCn1cnc(-c2cc(C(=O)O)ccn2)c1` [Example 48, 2-(1-{2-[2-(dimethylamino)ethoxy]ethyl}-1H-imidazol-4-yl)pyridine-4-carboxylic acid], the pIC50 on Jarid1A was not below 7.00; at Jarid1B it was not below 7.00; against JMJD2A, not below 7.00; on FBXL10 it was 6.00 to 7.00; against JMJD2C it was not below 7.00.

Regarding `CN1CCC(Cn2cnc(-c3cc(C(=O)O)ccn3)c2)CC1` [Example 50, 2-{1-[(1-methylpiperidin-4-yl)methyl]-1H-imidazol-4-yl}pyridine-4-carboxylic acid], the pIC50 was not below 7.00 on Jarid1A; not below 7.00 on Jarid1B; not below 7.00 against JMJD2A; 5.00 to 6.00 on FBXL10; not below 7.00 at JMJD2C.

For the molecule `CN(CCn1cnc(-c2cc(C(=O)O)ccn2)c1)c1ccccc1` [Example 58, 2-(1-{2-[methyl(phenyl)amino]ethyl}-1H-imidazol-4-yl)pyridine-4-carboxylic acid], the pIC50 on Jarid1A is not below 7.00; on Jarid1B it was not below 7.00; at JMJD2A, 6.00 to 7.00; on FBXL10 it was not below 7.00; on JMJD2C, 6.00 to 7.00.

With `CN(CCn1cnc(-c2cc(C(=O)O)ccn2)c1)CC1CC1` [Example 59, 2-(1-{2-[(cyclopropylmethyl)(methyl)amino]ethyl}-1H-imidazol-4-yl)pyridine-4-carboxylic acid], the negative logarithm of the IC50 (pIC50) against Jarid1A was not below 7.00; against Jarid1B, not below 7.00; against JMJD2A, not below 7.00; at FBXL10, 6.00 to 7.00; at JMJD2C, not below 7.00.

In the case of `O=C(O)c1ccnc(-c2cn(CCN3CCCC3=O)cn2)c1` [Example 60, 2-{1-[2-(2-oxopyrrolidin-1-yl)ethyl]-1H-imidazol-4-yl}pyridine-4-carboxylic acid], the pIC50 was not below 7.00 against Jarid1A; not below 7.00 against Jarid1B; not below 7.00 on JMJD2A; not below 7.00 against FBXL10; 6.00 to 7.00 at JMJD2C.

Take `c1cc(-c2nn[nH]n2)cc(-c2cn(CCN3CCCC3)cn2)n1` [Example 63, 2-{1-[2-(pyrrolidin-1-yl)ethyl]-1H-imidazol-4-yl}-4-(2H-tetrazol-5-yl)pyridine]: the pIC50 was not below 7.00 on Jarid1A; not below 7.00 at Jarid1B; 5.00 to 6.00 against JMJD2A; 6.00 to 7.00 against FBXL10; 6.00 to 7.00 on JMJD2C.

For the molecule `CN(CCn1cnc(-c2cc(C(=O)NC#N)ccn2)c1)CC1CC1` [Example 64, N-cyano-2-(1-{2-[(cyclopropylmethyl)(methyl)amino]ethyl}-1H-imidazol-4-yl)pyridine-4-carboxamide], the pIC50 against Jarid1A was not below 7.00; at Jarid1B, not below 7.00; at JMJD2A, less than 5.00; on FBXL10, less than 5.00; at JMJD2C, 6.00 to 7.00.

Consider `Cc1cccc(CN(C)CCn2cnc(-c3cc(C(=O)O)ccn3)c2)c1` [Example 66, 2-[1-[2-[methyl-[(3-methylphenyl)methyl]amino]ethyl]imidazol-4-yl]pyridine-4-carboxylic acid], for which the pIC50 on Jarid1A, at Jarid1B, on JMJD2A, on FBXL10 and on JMJD2C was not below 7.00 each time.

On to `Cc1ccc(CN(C)CCn2cnc(-c3cc(C(=O)O)ccn3)c2)cc1` [Example 67, 2-[1-[2-[methyl-[(4-methylphenyl)methyl]amino]ethyl]imidazol-4-yl]pyridine-4-carboxylic acid], for which the pIC50 on Jarid1A, on Jarid1B, against JMJD2A, against FBXL10 and against JMJD2C was not below 7.00 throughout.

In the case of `CN(CCn1cnc(-c2cc(C(=O)O)ccn2)c1)Cc1ccc(C(F)(F)F)cc1` [Example 68, 2-[1-[2-[methyl-[[4-(trifluoromethyl)phenyl]methyl]amino]ethyl]imidazol-4-yl]pyridine-4-carboxylic acid], the pIC50 on Jarid1A, on Jarid1B, against JMJD2A, against FBXL10 and at JMJD2C was not below 7.00 each time.

Turning to `O=C(O)c1ccnc(-c2cn(CCN3Cc4ccc(F)cc4C3)cn2)c1` [Example 79, 2-[1-[2-(5-fluoro-1,3-dihydroisoindol-2-yl)ethyl]imidazol-4-yl]pyridine-4-carboxylic acid], the pIC50 at Jarid1A, at Jarid1B, against FBXL10 and against JMJD2C was not below 7.00 each time.

For `CCc1ccccc1CNCCn1cnc(-c2cc(C(=O)O)ccn2)c1` [Example 80, 2-[1-[2-[(2-ethylphenyl)methylamino]ethyl]imidazol-4-yl]pyridine-4-carboxylic acid], the pIC50 on Jarid1A, against Jarid1B, against FBXL10 and against JMJD2C was not below 7.00 throughout.

On to `O=C(O)c1ccnc(-c2cn(CCN3Cc4cccc(Cl)c4C3)cn2)c1` [Example 81, 2-[1-[2-(4-chloro-1,3-dihydroisoindol-2-yl)ethyl]imidazol-4-yl]pyridine-4-carboxylic acid], for which the pIC50 against Jarid1A, at Jarid1B, against FBXL10 and at JMJD2C was not below 7.00 each time.

In the case of `O=C(O)c1ccnc(-c2cn(CCN3Cc4ccc(Cl)cc4C3)cn2)c1` [Example 82, 2-[1-[2-(5-chloro-1,3-dihydroisoindol-2-yl)ethyl]imidazol-4-yl]pyridine-4-carboxylic acid], the pIC50 against Jarid1A, at Jarid1B, against FBXL10 and on JMJD2C was not below 7.00 each time.

Turning to `N#Cc1cccc2c1CN(CCn1cnc(-c3cc(C(=O)O)ccn3)c1)C2` [Example 83, 2-[1-[2-(4-cyano-1,3-dihydroisoindol-2-yl)ethyl]imidazol-4-yl]pyridine-4-carboxylic acid], the pIC50 on Jarid1A, against Jarid1B, on FBXL10 and at JMJD2C was not below 7.00 each time.

As for `O=C(O)c1ccnc(-c2cn(CCN3Cc4ccc(C(F)(F)F)cc4C3)cn2)c1` [Example 84, 2-[1-[2-[5-(trifluoromethyl)-1,3-dihydroisoindol-2-yl]ethyl]imidazol-4-yl]pyridine-4-carboxylic acid], the pIC50 at Jarid1A, at Jarid1B, against FBXL10 and against JMJD2C was not below 7.00 throughout.

Take `O=C(O)c1ccnc(-c2cn(CCN(Cc3ccc(Cl)cc3)C3CC3)cn2)c1` [Example 85, 2-[1-[2-[(4-chlorophenyl)methyl-cyclopropylamino]ethyl]imidazol-4-yl]pyridine-4-carboxylic acid]: the pIC50 is not below 7.00 against Jarid1A, not below 7.00 against Jarid1B, not below 7.00 at FBXL10 and 6.00 to 7.00 against JMJD2C.

Turning to `O=C(O)c1ccnc(-c2cn(CCN(Cc3ccc(Cl)c(Cl)c3)C3CC3)cn2)c1` [Example 86, 2-[1-[2-[cyclopropyl-[(3,4-dichlorophenyl)methyl]amino]ethyl]imidazol-4-yl]pyridine-4-carboxylic acid], the pIC50 against Jarid1A is not below 7.00; on Jarid1B, not below 7.00; at FBXL10, not below 7.00; at JMJD2C, 6.00 to 7.00.

On to `O=C(O)c1ccnc(-c2cn(CCc3cccc(Cl)c3)cn2)c1` [Example 113, 2-[1-[2-(3-chlorophenyl)ethyl]imidazol-4-yl]pyridine-4-carboxylic acid], for which the pIC50 against Jarid1A was not below 7.00; against Jarid1B, not below 7.00; on FBXL10 it was not below 7.00; at JMJD2C, 6.00 to 7.00.

Take `O=C(O)c1ccnc(-c2cn(CCC3CCCCC3)cn2)c1` [Example 114, 2-[1-(2-cyclohexylethyl)imidazol-4-yl]pyridine-4-carboxylic acid]: the pIC50 against Jarid1A is not below 7.00; against Jarid1B, not below 7.00; against FBXL10, not below 7.00; at JMJD2C, 6.00 to 7.00.

`O=C(O)c1ccnc(-c2cn(CC3CCCCC3)cn2)c1` [Example 115, 2-[1-(cyclohexylmethyl)imidazol-4-yl]pyridine-4-carboxylic acid]: the negative logarithm of the IC50 (pIC50) at Jarid1A is not below 7.00; at Jarid1B, not below 7.00; on FBXL10, not below 7.00; on JMJD2C, 6.00 to 7.00.

`c1ccc2c(CCn3cnc(-c4cc(-c5nn[nH]n5)ccn4)c3)cccc2c1` [Example 142, 2-[1-(2-naphthalen-1-ylethyl)imidazol-4-yl]-4-(2H-tetrazol-5-yl)pyridine]: the pIC50 at Jarid1B was not below 7.00; against JMJD2A, less than 5.00; against FBXL10, not below 7.00; on JMJD2C, 5.00 to 6.00.

Regarding `c1ccc2c(c1)CCCC2Cn1cnc(-c2cc(-c3nn[nH]n3)ccn2)c1` (centres unmarked) [Example 143, 2-[1-(1,2,3,4-tetrahydronaphthalen-1-ylmethyl)imidazol-4-yl]-4-(2H-tetrazol-5-yl)pyridine], the pIC50 is 6.00 to 7.00 against Jarid1B, less than 5.00 against JMJD2A, not below 7.00 against FBXL10 and 5.00 to 6.00 on JMJD2C.

The pIC50 is the negative decadic logarithm of the IC50, by convention in mol/L. A higher pIC50 goes with a low IC50.
